# Data published in ChEMBL document CHEMBL4837239, “Identification of Thieno[3,2-d]pyrimidine Derivatives as Dual Inhibitors of Focal Adhesion Kinase and FMS-like Tyrosine Kinase 3” (J Med Chem, 2021).
# The source made the active and inactive calls. No cut-off for these calls is given here.
# Key:
# HCT-116 [1] = test: Antiproliferative activity against human HCT-116 cells assessed as growth inhibition measured after 72 hrs by CellTiter-Glo assay; format: functional; settings: Homo sapiens, HCT-116
# [2] = Inhibition of FYK Y379 mutant phosphorylation in human MDA-MB-231 cells by in-cell western blot assay; format: cell-based
# CYP3A4 = CYP3A4 (Homo sapiens, UniProt P08684); test: Inhibition of CYP3A4 (unknown origin) at 10 uM relative to control; format: ADME
# [3] = biological target: Cyclin-dependent kinase 4 (Homo sapiens, UniProt P11802); test: Inhibition of CDK4 (unknown origin)
# Homo sapiens = species on record: Homo sapiens; test: Inhibition of FLT3 D835Y mutant (unknown origin) at 0.1 uM
# [4] = biological target: Non-receptor tyrosine-protein kinase TYK2 (Homo sapiens, UniProt P29597); test: Inhibition of TYK2 (unknown origin) at 0.1 uM
# [5] = biological target: Tyrosine-protein kinase Fes/Fps (Homo sapiens, UniProt P07332); test: Inhibition of Fes (unknown origin) at 0.1 uM
# [6] = biological target: Ephrin type-B receptor 1 (Homo sapiens) (UniProt P54762); test: Inhibition of EphB1 (unknown origin) at 0.1 uM
# Colon carcinoma cell = test: Antiproliferative activity against human colon cancer cells assessed as growth inhibition measured after 72 hrs by MTT assay; format: functional, cell-based
# BaF3 [7] = test: Antiproliferative activity against mouse Ba/F3 cells harbouring FLT3 D835Y mutant assessed as growth inhibition measured after 72 hrs by CellTiter-Glo assay; format: functional; settings: Mus musculus, BaF3
# BaF3 [8] = test: Antiproliferative activity against mouse Ba/F3 cells assessed as growth inhibition measured after 72 hrs by CellTiter-Glo assay; format: functional; settings: Mus musculus, BaF3
# Focal adhesion kinase 1 [9] = biological target: T1, Focal adhesion kinase 1 (Homo sapiens, UniProt Q05397); test: Inhibition of FAK autophosphorylation at Y397 in human MDA-MB-231 cells at 5 uM incubated for 24 hrs by Western blot analysis; format: cell-based
# Focal adhesion kinase 1 [10] = biological target: T1, Focal adhesion kinase 1; test: Inhibition of FAK autophosphorylation at Y925 in human MDA-MB-231 cells at 5 uM incubated for 24 hrs by Western blot analysis; format: cell-based
# Focal adhesion kinase 1 [11] = biological target: T1, Focal adhesion kinase 1; test: Inhibition of FAK in human HCT-116 cells assessed as inhibition of paxillin phosphorylation at 0.5 to 5 uM incubated for 24 hrs by Western blot analysis; format: cell-based; settings: dose 0.5-5 µM
# Focal adhesion kinase 1 [12] = biological target: T1, Focal adhesion kinase 1; test: Inhibition of FAK in human MDA-MB-231 cells assessed as inhibition of Pyk2 phosphorylation at 0.5 to 5 uM incubated for 24 hrs by Western blot analysis; format: cell-based; settings: dose 0.5-5 µM
# [13] = biological target: T2, Mitogen-activated protein kinase; ERK1/ERK2 (Homo sapiens) (UniProt P27361+P28482); test: Inhibition of ERK1/2 autophosphorylation in human HCT-116 cells at 0.5 to 5 uM incubated for 24 hrs by Western blot analysis; format: cell-based; settings: dose 0.5-5 µM
# [14] = biological target: T2, Mitogen-activated protein kinase; ERK1/ERK2 (Homo sapiens); test: Inhibition of ERK1/2 autophosphorylation in human MDA-MB-231 cells at 0.5 to 5 uM incubated for 24 hrs by Western blot analysis; format: cell-based; settings: dose 0.5-5 µM
# HCT-116 [15] = test: Induction of apoptosis in human HCT-116 cells assessed as cleaved PARP at 0.1 to 10 uM incubated for 24 hrs by Western blot analysis; format: functional, cell-based; settings: dose 0.1-10 µM
# MDA-MB-231 [16] = test: Induction of apoptosis in human MDA-MB-231 cells assessed apoptotic cell death at 10 uM incubated for 24 hrs by Annexin-V/PI analysis; format: functional, cell-based
# MDA-MB-231 [17] = test: Growth inhibition of anchorage-Independent human MDA-MB-231 cells assessed as decrease in number of colonies incubated for 72 hrs by MTT assay; format: functional, cell-based; settings: dose 1-10 µM
# HCT-116 [18] = test: Growth inhibition of anchorage-Independent human HCT-116 cells assessed as decrease in number of colonies incubated for 72 hrs by MTT assay; format: functional, cell-based; settings: dose 1-10 µM
# MDA-MB-231 [19] = test: In vivo antitumor activity against human MDA-MB-231 cells xenografted in Balb/c mouse assessed as tumor volume at 70 mg/kg, po once daily measured for 16 days (reference value: 600 mm^3); format: functional; settings: time 16 day
# MDA-MB-231 [20] = test: Antimigratory activity in human MDA-MB-231 cells assessed as suppression of migration at 1 uM measured after 12 hrs by scratch wound healing assay; format: functional
# MDA-MB-231 [21] = test: Disruption of focal adhesion of human MDA-MB-231 cells assessed as decrease in F-actin measured after 3 hrs by Alexa Fluor 488-conjugated Ab based fluorescence analysis; format: functional; set-up: scale not given: the % may be the effect or the level left; settings: dose 1-10 µM, at 1 to 10 µM
# MDA-MB-231 [22] = test: Antimetastatic activity against human MDA-MB-231 cells expressing firefly luciferase xenografted NSG orthotopic mouse model assessed as reduction in luminescence intensity at 40 to 70 mg/kg, po once daily measured for 2 weeks; format: functional, organism-based; settings: dose 40-70 mg/kg
# MDA-MB-231 [23] = test: Antimetastatic activity against human MDA-MB-231 cells expressing firefly luciferase xenografted NSG orthotopic mouse model assessed as reduction in luminescence intensity at axillary lymph node at 70 mg/kg, po once daily measured for 2 weeks; format: functional, organism-based
# [24] = Toxicity in NSG orthotopic mouse xenografted with human MDA-MB-231 cells assessed as change in body weight at 40 to 70 mg/kg, po once daily measured for 2 weeks; format: organism-based; settings: in vivo, 336 h, dose 40-70 mg/kg
# T1 sequence (Q05397 2-1052 limits assumed): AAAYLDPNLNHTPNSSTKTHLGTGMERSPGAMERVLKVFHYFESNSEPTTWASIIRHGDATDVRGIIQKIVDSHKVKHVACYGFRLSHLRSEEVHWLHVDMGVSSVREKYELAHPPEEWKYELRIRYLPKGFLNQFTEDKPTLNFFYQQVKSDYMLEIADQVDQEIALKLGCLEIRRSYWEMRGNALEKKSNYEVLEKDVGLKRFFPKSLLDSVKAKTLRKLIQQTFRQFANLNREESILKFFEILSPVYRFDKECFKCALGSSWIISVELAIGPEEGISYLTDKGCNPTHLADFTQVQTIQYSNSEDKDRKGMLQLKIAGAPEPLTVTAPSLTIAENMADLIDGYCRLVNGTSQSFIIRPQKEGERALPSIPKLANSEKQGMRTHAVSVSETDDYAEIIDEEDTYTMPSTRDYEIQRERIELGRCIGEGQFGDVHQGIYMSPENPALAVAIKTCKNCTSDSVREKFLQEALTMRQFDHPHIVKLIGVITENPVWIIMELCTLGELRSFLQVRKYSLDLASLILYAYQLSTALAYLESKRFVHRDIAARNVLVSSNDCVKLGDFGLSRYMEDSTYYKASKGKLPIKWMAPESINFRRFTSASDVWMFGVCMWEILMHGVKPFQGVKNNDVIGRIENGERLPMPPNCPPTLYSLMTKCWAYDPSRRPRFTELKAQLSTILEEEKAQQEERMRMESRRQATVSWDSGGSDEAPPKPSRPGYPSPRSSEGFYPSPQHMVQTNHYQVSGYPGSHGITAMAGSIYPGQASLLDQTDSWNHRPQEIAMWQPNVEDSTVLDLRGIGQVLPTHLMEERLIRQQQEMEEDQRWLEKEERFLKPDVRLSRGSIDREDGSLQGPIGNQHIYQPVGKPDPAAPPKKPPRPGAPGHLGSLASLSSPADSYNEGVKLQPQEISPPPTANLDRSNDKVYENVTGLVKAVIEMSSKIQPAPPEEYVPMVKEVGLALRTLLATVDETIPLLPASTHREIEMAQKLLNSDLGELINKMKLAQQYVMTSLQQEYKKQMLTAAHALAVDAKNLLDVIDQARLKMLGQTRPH
# T2 sequence (P27361 whole entry, looked up): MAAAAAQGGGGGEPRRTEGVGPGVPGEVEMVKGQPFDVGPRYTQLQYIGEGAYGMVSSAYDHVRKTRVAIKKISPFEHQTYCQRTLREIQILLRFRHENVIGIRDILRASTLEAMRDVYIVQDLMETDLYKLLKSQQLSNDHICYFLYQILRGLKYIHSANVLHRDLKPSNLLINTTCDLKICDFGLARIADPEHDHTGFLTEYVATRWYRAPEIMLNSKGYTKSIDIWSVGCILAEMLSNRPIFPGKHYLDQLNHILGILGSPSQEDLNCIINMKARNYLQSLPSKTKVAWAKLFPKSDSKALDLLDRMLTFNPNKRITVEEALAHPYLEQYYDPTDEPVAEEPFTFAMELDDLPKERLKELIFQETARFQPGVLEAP
# T2 sequence (P28482 whole entry, looked up): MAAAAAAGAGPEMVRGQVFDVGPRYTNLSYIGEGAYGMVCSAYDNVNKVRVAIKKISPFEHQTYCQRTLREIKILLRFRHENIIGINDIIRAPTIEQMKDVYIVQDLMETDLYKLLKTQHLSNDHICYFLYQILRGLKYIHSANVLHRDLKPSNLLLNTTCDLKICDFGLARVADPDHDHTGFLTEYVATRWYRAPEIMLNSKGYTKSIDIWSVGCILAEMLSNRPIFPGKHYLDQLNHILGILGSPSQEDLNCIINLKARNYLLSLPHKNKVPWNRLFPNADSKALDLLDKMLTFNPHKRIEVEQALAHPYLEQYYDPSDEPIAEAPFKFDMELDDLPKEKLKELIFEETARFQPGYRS
# Chain of Tyrosine-protein kinase Fes/Fps (P07332 whole entry): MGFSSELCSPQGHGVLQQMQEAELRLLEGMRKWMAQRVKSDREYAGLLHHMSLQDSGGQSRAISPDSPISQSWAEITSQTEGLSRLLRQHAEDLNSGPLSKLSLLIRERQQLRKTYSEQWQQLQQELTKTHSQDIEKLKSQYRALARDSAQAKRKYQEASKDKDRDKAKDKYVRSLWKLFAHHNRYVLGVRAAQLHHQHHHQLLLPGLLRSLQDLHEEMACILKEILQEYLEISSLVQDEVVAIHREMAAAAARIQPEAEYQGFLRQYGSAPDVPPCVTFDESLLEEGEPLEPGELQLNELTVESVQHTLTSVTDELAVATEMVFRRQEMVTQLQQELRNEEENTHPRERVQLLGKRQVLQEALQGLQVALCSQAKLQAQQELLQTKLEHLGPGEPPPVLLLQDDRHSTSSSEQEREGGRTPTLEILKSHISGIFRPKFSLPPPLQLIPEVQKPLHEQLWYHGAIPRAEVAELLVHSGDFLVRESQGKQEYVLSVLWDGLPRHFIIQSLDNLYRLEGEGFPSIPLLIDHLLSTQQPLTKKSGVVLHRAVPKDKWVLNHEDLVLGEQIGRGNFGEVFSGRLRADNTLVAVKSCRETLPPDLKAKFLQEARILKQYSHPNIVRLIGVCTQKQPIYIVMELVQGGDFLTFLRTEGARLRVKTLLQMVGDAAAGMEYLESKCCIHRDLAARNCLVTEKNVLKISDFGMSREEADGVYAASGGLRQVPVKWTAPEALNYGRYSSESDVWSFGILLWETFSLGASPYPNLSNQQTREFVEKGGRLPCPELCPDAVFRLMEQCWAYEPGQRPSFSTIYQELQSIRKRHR
# Chain of Ephrin type-B receptor 1 (Homo sapiens) (P54762 whole entry): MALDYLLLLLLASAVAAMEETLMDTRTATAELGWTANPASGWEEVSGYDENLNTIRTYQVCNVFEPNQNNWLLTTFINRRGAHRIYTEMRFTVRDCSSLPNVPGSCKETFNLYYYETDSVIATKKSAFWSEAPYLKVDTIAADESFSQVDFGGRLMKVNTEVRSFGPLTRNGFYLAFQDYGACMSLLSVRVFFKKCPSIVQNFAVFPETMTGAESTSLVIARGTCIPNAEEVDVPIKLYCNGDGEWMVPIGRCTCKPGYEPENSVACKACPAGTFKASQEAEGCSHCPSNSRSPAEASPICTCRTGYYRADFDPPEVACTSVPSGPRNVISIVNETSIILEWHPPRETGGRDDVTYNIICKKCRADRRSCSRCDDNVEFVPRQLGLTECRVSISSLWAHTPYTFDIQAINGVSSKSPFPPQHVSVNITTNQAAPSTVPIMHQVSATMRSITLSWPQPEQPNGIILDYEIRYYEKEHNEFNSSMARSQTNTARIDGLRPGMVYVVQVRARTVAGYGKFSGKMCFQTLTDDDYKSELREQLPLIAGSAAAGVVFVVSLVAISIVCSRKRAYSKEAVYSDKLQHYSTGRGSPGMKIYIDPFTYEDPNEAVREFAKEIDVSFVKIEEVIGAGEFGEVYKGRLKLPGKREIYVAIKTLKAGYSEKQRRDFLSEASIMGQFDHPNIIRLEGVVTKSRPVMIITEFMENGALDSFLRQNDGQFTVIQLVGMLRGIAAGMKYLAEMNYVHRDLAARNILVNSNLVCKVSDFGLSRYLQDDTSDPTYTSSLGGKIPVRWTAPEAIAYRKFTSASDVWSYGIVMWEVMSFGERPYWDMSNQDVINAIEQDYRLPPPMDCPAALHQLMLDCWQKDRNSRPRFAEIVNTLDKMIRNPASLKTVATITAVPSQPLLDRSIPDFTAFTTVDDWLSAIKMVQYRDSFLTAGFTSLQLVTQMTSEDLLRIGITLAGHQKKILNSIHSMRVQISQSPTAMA
# Chain of Non-receptor tyrosine-protein kinase TYK2 (P29597 whole entry): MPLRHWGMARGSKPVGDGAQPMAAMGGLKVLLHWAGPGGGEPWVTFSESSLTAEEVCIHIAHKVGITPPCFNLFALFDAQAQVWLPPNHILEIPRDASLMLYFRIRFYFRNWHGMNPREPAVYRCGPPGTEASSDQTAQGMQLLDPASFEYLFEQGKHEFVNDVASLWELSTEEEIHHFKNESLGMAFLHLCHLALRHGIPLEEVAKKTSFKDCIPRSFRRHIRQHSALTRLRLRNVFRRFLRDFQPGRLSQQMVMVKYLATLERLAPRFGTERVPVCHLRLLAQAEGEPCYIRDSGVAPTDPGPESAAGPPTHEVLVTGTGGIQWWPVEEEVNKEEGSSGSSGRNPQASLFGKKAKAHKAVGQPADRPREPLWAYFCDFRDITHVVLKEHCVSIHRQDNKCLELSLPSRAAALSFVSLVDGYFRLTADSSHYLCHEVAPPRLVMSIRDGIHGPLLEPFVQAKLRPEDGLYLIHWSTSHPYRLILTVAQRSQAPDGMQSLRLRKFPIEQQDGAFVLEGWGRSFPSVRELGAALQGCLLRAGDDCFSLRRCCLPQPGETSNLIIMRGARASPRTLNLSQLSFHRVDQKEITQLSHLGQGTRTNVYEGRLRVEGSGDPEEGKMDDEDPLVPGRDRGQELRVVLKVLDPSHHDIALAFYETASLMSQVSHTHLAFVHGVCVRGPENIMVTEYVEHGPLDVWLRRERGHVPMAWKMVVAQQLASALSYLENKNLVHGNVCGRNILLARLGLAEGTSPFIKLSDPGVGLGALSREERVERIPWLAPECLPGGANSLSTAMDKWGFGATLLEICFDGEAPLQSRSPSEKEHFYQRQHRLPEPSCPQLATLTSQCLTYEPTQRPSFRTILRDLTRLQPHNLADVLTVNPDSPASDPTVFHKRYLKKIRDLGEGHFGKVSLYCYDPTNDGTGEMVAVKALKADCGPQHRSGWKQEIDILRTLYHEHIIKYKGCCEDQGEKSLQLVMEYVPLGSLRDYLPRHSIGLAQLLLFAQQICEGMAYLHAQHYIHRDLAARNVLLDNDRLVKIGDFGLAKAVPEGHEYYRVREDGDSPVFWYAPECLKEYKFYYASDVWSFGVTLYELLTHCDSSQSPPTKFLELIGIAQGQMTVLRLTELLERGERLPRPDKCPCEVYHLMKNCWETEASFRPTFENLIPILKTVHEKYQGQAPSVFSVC
structure (smiles),measurement,setting,value
CCN1CCN(c2ccc(Nc3ncc4scc(-c5cccc(NS(C)(=O)=O)c5)c4n3)cc2)CC1,GI50,HCT-116 [1],0.16 µM
same,IC50,[2],0.26 µM
same,inhibition at 10 µM,CYP3A4,71.9%
same,IC50,[3],0.0085 µM
same,inhibition,Homo sapiens,98.4%
same,inhibition,[4],95.9%
same,inhibition,[5],95%
same,inhibition,[6],91.1%
same,Activity,Colon carcinoma cell,Active
same,GI50,BaF3 [7],0.0004 µM
same,GI50,BaF3 [8],0.428 µM
same,inhibition,Focal adhesion kinase 1 [9],Active
same,inhibition,Focal adhesion kinase 1 [10],Active
same,inhibition,Focal adhesion kinase 1 [11],Active
same,inhibition,Focal adhesion kinase 1 [12],Active
same,inhibition,[13],inactive
same,inhibition,[14],inactive
same,Activity,HCT-116 [15],Active
same,Activity,MDA-MB-231 [16],Active
same,growth inhibition (GI),MDA-MB-231 [17],Dose-Dependent Effect
same,growth inhibition (GI),HCT-116 [18],Active
same,Activity,MDA-MB-231 [19],300 mm3
same,inhibition at 1 µM,MDA-MB-231 [20],50%
same,Activity,MDA-MB-231 [21],50%
same,Activity,MDA-MB-231 [22],Active
same,Activity,MDA-MB-231 [23],Active
same,Activity,[24],Non-Toxic
